In brackets after ≈: the same amount, converted by molar mass.
Test system: up to 32 different microorganisms
Test: in vitro antibacterial activity (MIC), agar dilution on Brain Heart Infusion (BHI) agar with Steers replicator
Type: cell-based
Conditions: unit assumed
Procedure: Representative compounds of the present invention were assayed in vitro for antibacterial activity as follows: Twelve petri dishes containing successive aqueous dilutions of the test compound mixed with 10 mL of sterilized Brain Heart Infusion (BHI) agar (Difco 0148-01-5) were prepared. Each plate was inoculated with 1:100 (or 1:10 for slow-growing strains, such as Micrococcus and Streptococcus) dilutions of up to 32 different microorganisms, using a Steers replicator block. The inoculated plates were incubated at 35°-37° C. for 20 to 24 hours. In addition, a control plate, using BHI agar containing no test compound, was prepared and incubated at the beginning and end of each test.
An additional plate containing a compound having known susceptibility patterns for the organisms being tested and belonging to the same antibiotic class as the test compound was also prepared and incubated as a further control, as well as to provide test-to-test comparability. Erythromycin A was used for this purpose.
After incubation, each plate was visually inspected. The minimum inhibitory concentration (MIC) was defined as the lowest concentration of drug yielding no growth, a slight haze, or sparsely isolated colonies on the inoculum spot as compared to the growth control.

[1] = Candida albicans CCH 442 (code TT)
[2] = Enterococcus faecism ATCC 8043 (code II)
[3] = Escherichia coli DC-2 (code SS)
[4] = Escherichia coli JUHL (code QQ)
[5] = Haemophilis influenzae DILL AMP R (code WW)
[6] = Micrococcus luteus ATCC 4698 (code PP)
[7] = Micrococcus luteus ATCC 9341 (code OO)
[8] = Mycobacterium smegmatis ATCC 114 (code UU)
[9] = Nocardia Asteroides ATCC9970 (code VV)
[10] = Staphylococcus aureus 1775 (code GG)
[11] = Staphylococcus aureus A5177 (code BB)
[12] = Staphylococcus aureus A-5278 (code CC)
[13] = Staphylococcus aureus ATCC 6538P (code AA)
[14] = Staphylococcus aureus CMX 553 (code FF)
[15] = Staphylococcus aureus CMX 642A (code DD)
[16] = Staphylococcus aureus NCTC10649M (code EE)
[17] = Staphylococcus epidermidis 3519 (code HH)
[18] = Streptococcus Pneumonia 5649 (code ZZA)
[19] = Streptococcus Pneumonia 5979 (code ZZ)
[20] = Streptococcus Pneumonia ATCC6303 (code XX)
[21] = Streptococcus Pneumonia GYR 1171 (code YY)
[22] = Streptococcus agalactiae CMX 508 (code KK)
[23] = Streptococcus bovis A-5169 (code JJ)
[24] = Streptococcus pyogenes 930 (code MM)
[25] = Streptococcus pyogenes EES61 (code LL)
[26] = Streptococcus pyogenes PIU 2548 (code NN)

Row | Compound | MIC [1] [µg/mL] | MIC [2] [µg/mL] | MIC [3] [µg/mL] | MIC [4] [µg/mL] | MIC (Escherichia coli SS (code RR)) [µg/mL] | MIC [5] [µg/mL] | MIC [6] [µg/mL] | MIC [7] [µg/mL] | MIC [8] [µg/mL] | MIC [9] [µg/mL] | MIC [10] [µg/mL] | MIC [11] [µg/mL] | MIC [12] [µg/mL] | MIC [13] [µg/mL] | MIC [14] [µg/mL] | MIC [15] [µg/mL] | MIC [16] [µg/mL] | MIC [17] [µg/mL] | MIC [18] [µg/mL] | MIC [19] [µg/mL] | also measured
1 | CC[C@H]1OC(=O)[C@H](C)C(=O)[C@H](C)[C@@H](O[C@@H]2O[C@H](C)C[C@H](N(C)C)[C@H]2O)[C@@](C)(OCCCc2cnc3ccccc3c2)C[C@@H](C)C2=NCCN3C(=O)O[C@@]1(C)[C@H]3[C@H]2C [Example 171, Compound of Formula (VII): A, B, D, and E are H, R is —CH2CH2CH2-(3-quinolyl)] | > 100 | 0.05 | 25 | 25 | 0.39 | 2 | 0.39 | 0.01 | 0.78 | 0.05 | > 100 | 0.05 | > 100 | 0.1 | 0.05 | 0.05 | 0.02 | 0.1 | 1 | > 16 | MIC [20]: 0.03 µg/mL; MIC [21]: 0.03 µg/mL; MIC [22]: 0.02 µg/mL; MIC [23]: ≤ 0.005 µg/mL; MIC [24]: 25 µg/mL; MIC [25]: ≤ 0.005 µg/mL; MIC [26]: 0.2 µg/mL
2 | CC[C@H]1OC(=O)[C@H](C)C(=O)[C@H](C)[C@@H](O[C@@H]2O[C@H](C)C[C@H](N(C)C)[C@H]2O)[C@@](C)(OCc2ccc3ccccc3c2)C[C@@H](C)C(=O)[C@H](C)[C@@H](O)[C@]1(C)O [Example 173] | 100 (≈ 140 µM) | 1.56 (≈ 2.19 µM) | > 100 | > 100 | 50 (≈ 70 µM) | 128 (≈ 179 µM) | 3.1 (≈ 4.34 µM) | 0.78 (≈ 1.09 µM) | 3.1 (≈ 4.34 µM) | 6.2 (≈ 8.68 µM) | 100 (≈ 140 µM) | 50 (≈ 70 µM) | 100 (≈ 140 µM) | 12.5 (≈ 17.5 µM) | 12.5 (≈ 17.5 µM) | 12.5 (≈ 17.5 µM) | 12.5 (≈ 17.5 µM) | 12.5 (≈ 17.5 µM) | 4 (≈ 5.6 µM) | 32 (≈ 44.8 µM) | MIC [20]: 2 µg/mL (≈ 2.8 µM); MIC [21]: 2 µg/mL (≈ 2.8 µM); MIC [22]: 0.78 µg/mL (≈ 1.09 µM); MIC [23]: 0.78 µg/mL (≈ 1.09 µM); MIC [24]: 50 µg/mL (≈ 70 µM); MIC [25]: 0.78 µg/mL (≈ 1.09 µM); MIC [26]: 3.1 µg/mL (≈ 4.34 µM)
3 | CC[C@H]1OC(=O)[C@H](C)C(=O)[C@H](C)[C@@H](O[C@@H]2O[C@H](C)C[C@H](N(C)C)[C@H]2O)[C@@](C)(OCC=Cc2ccc(F)cc2)C[C@@H](C)C(=O)[C@H](C)[C@@H](O)[C@]1(C)O [Example 174, Compound of Formula (VIII): X is O, R is CH2—CH═CH-(4-fluorophenyl)] | > 100 | 3.1 | > 100 | > 100 | 12.5 | 128 | 0.78 | 0.39 | 3.1 | 0.78 | > 100 | 3.1 | > 100 | 3.1 | 3.1 | 3.1 | 3.1 | 3.1 | 2 | > 128 | MIC [20]: 1 µg/mL; MIC [21]: 1 µg/mL; MIC [22]: 0.39 µg/mL; MIC [23]: 0.2 µg/mL; MIC [24]: > 100 µg/mL; MIC [25]: 0.39 µg/mL; MIC [26]: 1.56 µg/mL
4 | CC[C@H]1OC(=O)[C@H](C)C(=O)[C@H](C)[C@@H](O[C@@H]2O[C@H](C)C[C@H](N(C)C)[C@H]2O)[C@@](C)(OCC(O)C#N)C[C@@H](C)C(=O)[C@H](C)[C@@H](O)[C@]1(C)O (stereo partly drawn) [Example 175, Compound of Formula (VIII): X is O, R is CH2—CH(OH)—CN] | > 100 | 0.02 | > 100 | > 100 | 0.78 | 64 | 0.1 | 0.05 | 0.78 | 0.39 | 12.5 | 0.39 | 25 | 0.2 | 0.78 | 0.78 | 0.78 | 0.78 | 2 | 8 | MIC [20]: 0.03 µg/mL; MIC [21]: 0.03 µg/mL; MIC [22]: 0.02 µg/mL; MIC [23]: 0.02 µg/mL; MIC [24]: 3.1 µg/mL; MIC [25]: 0.01 µg/mL; MIC [26]: 0.39 µg/mL
5 | CC[C@H]1OC(=O)[C@H](C)C(=O)[C@H](C)[C@@H](O[C@@H]2O[C@H](C)C[C@H](N(C)C)[C@H]2O)[C@@](C)(OCc2ccc3ccccc3c2)C[C@@H](C)C(=O)[C@H](C)[C@H]2NC(=O)O[C@@]21C [Example 176, Compound of Formula (IX): L is CO, T is NH, R is —CH2-(2-naphthyl)] | > 100 | 0.2 | > 100 | > 100 | 3.1 | 64 | 0.2 | 0.05 | 0.78 | 1.56 | 100 | 0.78 | > 100 | 1.56 | 0.78 | 1.56 | 0.78 | 0.78 | 0.25 | 64 | MIC [20]: 0.25 µg/mL; MIC [21]: 0.25 µg/mL; MIC [22]: 0.05 µg/mL; MIC [23]: 0.05 µg/mL; MIC [24]: 50 µg/mL; MIC [25]: 0.05 µg/mL; MIC [26]: 0.2 µg/mL
6 | C=CCO[C@@]1(C)C[C@@H](C)C(=O)[C@H](C)[C@H]2N(C)C(=O)O[C@]2(C)[C@@H](CC)OC(=O)[C@H](C)C(=O)[C@H](C)[C@H]1O[C@@H]1O[C@H](C)C[C@H](N(C)C)[C@H]1O [Example 179, Compound of Formula (IX): L is CO, T is N(CH3), R is —CH2CH═CH2] | > 100 | 1.56 | > 100 | > 100 | 6.2 | > 128 | 3.1 | 1.56 | 12.5 | 3.1 | > 100 | 6.2 | > 100 | 6.2 | 6.2 | 6.2 | 6.2 | 12.5 | 0.5 | > 128 | MIC [20]: 0.5 µg/mL; MIC [21]: 0.5 µg/mL; MIC [22]: 0.39 µg/mL; MIC [23]: 0.39 µg/mL; MIC [24]: > 100 µg/mL; MIC [25]: 0.39 µg/mL; MIC [26]: 0.78 µg/mL
7 | CC[C@H]1OC(=O)[C@H](C)C(=O)[C@H](C)[C@@H](O[C@@H]2O[C@H](C)C[C@H](N(C)C)[C@H]2O)[C@@](C)(OCC=Cc2cnc3ccccc3c2)C[C@@H](C)C(=O)[C@H](C)[C@H]2N(C)C(=O)O[C@]12C [Example 180, Compound of Formula (IX): L is CO, T is N(CH3), R is —CH2CH═CH-(3-quinolyl)] | > 100 | 0.05 | > 100 | > 100 | 0.2 | 4 | 0.1 | 0.02 | 0.2 | 0.1 | > 100 | 0.1 | > 100 | 0.1 | 0.1 | 0.1 | 0.1 | 0.1 | 0.25 | 128 | MIC [20]: 0.03 µg/mL; MIC [21]: 0.03 µg/mL; MIC [22]: 0.05 µg/mL; MIC [23]: 0.02 µg/mL; MIC [24]: 25 µg/mL; MIC [25]: 0.02 µg/mL; MIC [26]: 0.2 µg/mL

Reference: patent USRE39591E1, “6-O-substituted ketolides having antibacterial activity” (Abbott Laboratories, priority 1996, dated 2007)
